Molecular target: T1, ABCG2 (breast cancer resistance protein) (Homo sapiens, UniProt Q9UNQ0)
T1 sequence (Q9UNQ0 1-655): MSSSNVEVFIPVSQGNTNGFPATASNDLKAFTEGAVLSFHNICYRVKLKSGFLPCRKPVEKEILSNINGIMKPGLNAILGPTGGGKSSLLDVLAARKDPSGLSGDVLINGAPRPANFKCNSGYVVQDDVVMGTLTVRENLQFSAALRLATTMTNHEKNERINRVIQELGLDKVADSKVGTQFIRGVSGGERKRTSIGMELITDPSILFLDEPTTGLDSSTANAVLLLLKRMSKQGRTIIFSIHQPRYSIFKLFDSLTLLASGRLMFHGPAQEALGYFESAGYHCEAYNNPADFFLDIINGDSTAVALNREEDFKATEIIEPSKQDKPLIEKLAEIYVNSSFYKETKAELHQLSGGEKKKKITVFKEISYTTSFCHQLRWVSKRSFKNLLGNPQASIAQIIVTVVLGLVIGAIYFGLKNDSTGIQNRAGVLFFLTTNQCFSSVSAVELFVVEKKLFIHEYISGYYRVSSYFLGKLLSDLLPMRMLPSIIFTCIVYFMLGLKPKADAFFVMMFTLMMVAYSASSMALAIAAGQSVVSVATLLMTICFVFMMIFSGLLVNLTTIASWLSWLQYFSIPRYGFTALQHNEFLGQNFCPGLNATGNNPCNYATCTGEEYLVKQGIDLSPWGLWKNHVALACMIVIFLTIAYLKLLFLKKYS
Test: competition of […]IAAP photoaffinity labeling
Assay type: binding

- IC50: 90 nM
SMILES: CN1CCC(CNc2ccc3ncc(-c4cccc(OC(F)(F)F)c4)n3n2)CC1 [SGI-1776]
